According to patent US20140057915A1, “KINASE INHIBITORS” (TOPIVERT PHARMA LIMITED, priority 2012, published 2014):

What was measured:
BDF1 mice = assay: TNBS-induced colitis in mice; assay type: in vivo, mouse; settings: TNBS; 2.5 mg/kg; 2 days
Experimental: (C) TNBS-Induced Colitis in Mice […] On Day 0 of the study TNBS (200 μL) is administered intra-colonically via a plastic catheter followed by BID dosing of the vehicle, reference or test compound for 2 or 4 days. During the study animals are weighed every day and stool observations are made and recorded as a score, based on stool consistency. At the time of sacrifice on Day 2 (or Day 4) the large intestine is removed and the length and weight recorded. Sections of the colon are taken for either MPO analysis to determine neutrophil infiltration or for histopathology involving scoring to determine disease severity.

[1] = system: TNFα release, d-U937 cells; assay: LPS-induced TNFα release in d-U937 cells; assay type: cell-based; settings: Homo sapiens, dU937; relative to 10 μg/mL BIRB796; Table 4c1; read-out: LPS Induced Release of Cytokine in d-U937 Cells, TNFα REC50
Summary of the method: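 Sandwich ELISA quantifies cytokine in supernatants after 4 hr LPS challenge (0.1 μg/mL) of PMA-differentiated (100 ng/mL, 48–72 hr) U937 macrophages given compound 2 hr beforehand. REC50 derived from concentration-response curve, inhibition calculated relative to vehicle.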

[2] = system: IL-8 release, d-U937 cells; assay: LPS-induced IL-8 release in d-U937 cells; assay type: cell-based; settings: Homo sapiens, dU937; Table 4c1; read-out: LPS Induced Release of Cytokine in d-U937 Cells, IL-8 IC50
Summary of the method: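 IL-8 release after a 4 hr challenge with LPS (0.1 μg/mL, E. coli 0111:B4) following a 2 hr compound pretreatment. Cells were human U937 monocytes differentiated to macrophage-type with PMA 100 ng/mL for 48–72 hr. Relative 50% effective concentration derived from concentration–response data.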

Syk = Syk (Homo sapiens, UniProt P43405); assay: Syk enzyme inhibition (FRET); assay type: biochemical
Summary of the method: (§1)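 2 hr RT enzyme + cpd (added solns 4/0.4/0.04/0.004 μg/mL); + FRET peptide (8 μM soln) + ATP soln (c-Src 800 μM, Syk 60 μM), 1 hr; protease development 1 hr; read donor/acceptor emission ratio.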

[3] = system: ICAM-1 expression, BEAS2B cells; assay: Poly I:C-induced ICAM-1 expression in BEAS2B cells; assay type: cell-based; settings: Homo sapiens, BEAS-2B; read-out: Poly IC induced ICAM1 in BEAS2B, IC50
Summary of the method: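 Cell-based ELISA for surface ICAM-1 in human BEAS2B cells 18 h after transfection with the RNA-virus mimic poly I:C (1 μg/mL, with Oligofectamine), compounds added 2 h beforehand. OD450–655 divided by Crystal Violet OD595 per well; percent inhibition relative to vehicle.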

d-U937 cells = assay: Cell viability: MTT assay; assay type: cell-based, human; settings: 1 μg/mL
Summary of the method: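 MTT reduction (1 h, DMSO solubilisation, A550) measured after compound treatment at 1 or 10 μg/mL of differentiated U937 cells for 4 h (5% FCS RPMI1640) or 24 h (10% FCS). Percentage viability loss computed relative to 0.5% DMSO vehicle, with increases tabulated as negative values.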

cSrc = cSrc (Homo sapiens, UniProt P12931); assay: c-Src enzyme inhibition (FRET); assay type: biochemical
Sequence of cSrc (P12931 whole entry): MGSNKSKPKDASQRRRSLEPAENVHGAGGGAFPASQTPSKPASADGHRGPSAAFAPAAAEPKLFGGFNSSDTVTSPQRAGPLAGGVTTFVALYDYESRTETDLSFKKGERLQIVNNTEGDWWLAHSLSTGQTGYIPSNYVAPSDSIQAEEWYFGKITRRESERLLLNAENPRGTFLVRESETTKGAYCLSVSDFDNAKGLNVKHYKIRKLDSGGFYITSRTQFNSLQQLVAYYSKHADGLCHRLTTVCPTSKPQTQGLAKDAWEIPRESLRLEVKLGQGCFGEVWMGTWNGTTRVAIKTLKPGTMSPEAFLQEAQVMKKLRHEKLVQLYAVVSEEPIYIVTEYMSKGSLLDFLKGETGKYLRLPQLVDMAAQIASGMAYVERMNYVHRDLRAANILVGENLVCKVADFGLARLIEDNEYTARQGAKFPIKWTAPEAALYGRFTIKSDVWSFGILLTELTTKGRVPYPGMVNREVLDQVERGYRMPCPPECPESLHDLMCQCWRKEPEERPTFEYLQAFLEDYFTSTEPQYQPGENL
Summary of the method: as §1

GSK3α [4] = target: T1, GSK3α (Homo sapiens, UniProt P49840); assay: GSK 3α enzyme inhibition (FRET), Method 1; assay type: biochemical; settings: Table 4a1
T1 sequence (P49840 whole entry): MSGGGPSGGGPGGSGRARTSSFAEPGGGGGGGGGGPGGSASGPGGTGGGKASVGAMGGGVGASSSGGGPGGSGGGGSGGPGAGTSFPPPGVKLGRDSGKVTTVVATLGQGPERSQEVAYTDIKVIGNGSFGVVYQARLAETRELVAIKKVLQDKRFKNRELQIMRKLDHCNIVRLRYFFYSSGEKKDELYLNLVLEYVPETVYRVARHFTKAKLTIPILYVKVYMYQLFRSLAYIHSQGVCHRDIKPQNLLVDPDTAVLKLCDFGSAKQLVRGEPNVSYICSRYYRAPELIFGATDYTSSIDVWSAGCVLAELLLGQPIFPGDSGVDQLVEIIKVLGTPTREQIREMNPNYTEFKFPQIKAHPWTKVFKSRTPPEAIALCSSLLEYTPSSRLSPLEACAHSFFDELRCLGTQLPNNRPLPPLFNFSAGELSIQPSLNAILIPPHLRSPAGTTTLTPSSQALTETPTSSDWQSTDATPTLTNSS
Summary of the method: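 Compounds are tested at added-solution levels of 4, 0.4, 0.04 or 0.004 μg/mL against GSK3α, with a 2 hr RT preincubation. Kinase reaction with FRET peptide and ATP (8 μM and 40 μM as added) runs 1 hr, and phosphorylation is judged by the protease-sensitive FRET ratio.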

HRV16 in MRC5 cells = assay: HRV16 induced CPE in MRC5 cells; assay type: cell-based; settings: Human rhinovirus sp., HRV-16
Experimental: (j) Assessment of HRV16 Induced CPE in MRC5 Cells
MRC-5 cells are infected with HRV16 at an MOI of 1n DMEM containing 5% FCS and 1.5 mM magnesium chloride, followed by incubation for 1 hr at 33° C. to promote adsorption. The supernatants are aspirated, and then fresh media added followed by incubation for 4 days. Where appropriate, cells are pre-incubated with compound or DMSO for 2 hr, and the compounds and DMSO added again after washout of the virus.
After washing, 1% SDS in distilled water (100 μL) is added to each well, and the plates are shaken lightly for 1-2 hr prior to reading the absorbance at 660 nm. The percentage inhibition for each well is calculated. The IC50 value is calculated from the concentration-response curve generated by the serial dilutions of the test compounds.

GSK3α [5] = target: T1, GSK3α; assay: GSK 3α enzyme inhibition (FRET), Method 2; assay type: biochemical; settings: Table 4a2, different laboratory
PBMC cells = assay: Cell mitosis assay; assay type: cell-based; settings: Homo sapiens, read-out: % Inhibition of mitosis in PBMC cells at 5 μg/mL
Experimental: PBMCs from healthy subjects are separated from whole blood (Quintiles, London, UK) using a density gradient (Histopaque®-1077, Sigma-Aldrich, Poole, UK). The PBMCs (3 million cells per sample) are subsequently treated with 2% PHA (Sigma-Aldrich, Poole, UK) for 48 hr, followed by a 20 hr exposure to varying concentrations of test compounds. At 2 hr before collection, PBMCs are treated with demecolcine (0.1 μg/mL; Invitrogen, Paisley, UK) to arrest cells in metaphase. […] Fluorescence is observed using an ATTUNE flow cytometer (Invitrogen, Paisley, UK), gating for lymphocytes.

IL-2 release, PBMCs = assay: IL-2 release in CD3/CD28 stimulated PBMC cells; assay type: cell-based; settings: Homo sapiens, read-out: IC50 Values for Inhibition of Cytokine Release, PBMCs, IL-2
Experimental: (§2) (c) IL-2 and IFN Gamma Release in CD3/CD28 Stimulated PBMC Cells
(§3) PBMCs from healthy subjects are separated from whole blood using a density gradient (Lymphoprep, Axis-Shield Healthcare). Cells are added to a 96 well plate pre-coated with a mixture of […] monoclonal antibodies (0.3 ug/ml eBioscience and 3 ug/ml BD Pharmingen respectively). Compound at the desired concentration is then added to the wells and the plate left for 3 days under normal tissue culture conditions. Supernatants are harvested and IL-2 and IFN gamma release determined by Sandwich ELISA (Duo-set, R&D System). The IC50 is determined from the dose response curve.

IFN gamma release, PBMCs = assay: IFN gamma release in CD3/CD28 stimulated PBMC cells; assay type: cell-based; settings: Homo sapiens, read-out: IC50 Values for Inhibition of Cytokine Release, PBMCs, IFNγ
Experimental: as §2, §3

IL-8 release, PBMCs = assay: LPS-induced IL-8 release in PBMC cells; assay type: cell-based; settings: Homo sapiens, LPS stimulated, read-out: IC50 Values for Inhibition of Cytokine Release, PBMCs, IL-8
Summary of the method: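 PBMCs from healthy donors pretreated with compound for 2 h, then stimulated with 1 ng/ml LPS (E. coli 0111:B4) for 24 h at 37 °C, 5% CO2. Supernatant IL-8 and TNFα measured by sandwich ELISA with fluorescence read-out.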

IL-8 release, HT29 cells = assay: IL-1β-induced IL-8 release in HT29 cells; assay type: cell-based; settings: Homo sapiens, HT-29; IL-1β stimulated; read-out: IC50 Values for Inhibition of Cytokine Release, HT29 cells, IL-8
Experimental: (d) IL-1β-Induced IL-8 Release in HT29 Cells
HT29 cells, a human colon adenocarcinoma cell line, are plated in a 96 well plate (24 hrs) and pre-treated with compounds at the desired concentration for 2 hours before addition of 5 ng/ml of IL-1β (Abeam) for 24 hours, Supernatants are harvested for IL-8 quantification by Sandwich ELISA (Duo-set, R&D System). The IC50 is determined from the dose response curve.

[6] = Table 4a2, different laboratory

EC50 [1] [nM] | IC50 [2] [nM] | IC50 (Syk; Table 4a1) [nM] | IC50 (cSrc; Table 4a1) [nM] | IC50 (GSK3α [4]) [nM] | IC50 (GSK3α [5]) [nM] | IC50 (Syk; [6]) [nM] | IC50 (cSrc; [6]) [nM] | IC50 (IL-8 release, HT29 cells) [nM] | SMILES | LP inflammation (BDF1 mice) | Ulcer grade (BDF1 mice) | IC50 [3] [nM] | Cell viability at time point in d-U937 cells, 4 h (d-U937 cells) | Cell viability at time point in d-U937 cells, 24 h (d-U937 cells) | IC50 (HRV16 in MRC5 cells) [nM] | inhibition at 5 µg/mL (PBMC cells) [%] | IC50 (IL-2 release, PBMCs) [nM] | IC50 (IFN gamma release, PBMCs) [nM] | IC50 (IL-8 release, PBMCs) [nM]
0.2 | 2.2 | 9 | 3 | 1340 |  |  |  |  | Cc1ccc(-n2nc(C(C)(C)C)cc2NC(=O)Nc2ccc(Oc3ccnc(Nc4cc(C)cc(C(N)=O)c4)n3)c3ccccc23)cc1 [Example 40, 3-((4-((4-(3-(3-(tert-butyl)-1-(p-tolyl)-1H-pyrazol-5-yl)ureido)naphthalen-1-yl)oxy)pyrimidin-2-yl)amino)-5-methylbenzamide] |  |  | 0.7 | −ve (−ve and +ve indicate that the value is below and above respectively, the no significant effect threshold, defined as 30% inhibition at 1 μg/mL at the time point indicated) | −ve (−ve and +ve indicate that the value is below and above respectively, the no significant effect threshold, defined as 30% inhibition at 1 μg/mL at the time point indicated) | 2.9 |  |  |  | 
 |  |  |  |  | 11700 | 59 | 26 | 5.3 | C#Cc1cc(Nc2nccc(Oc3ccc(NC(=O)Nc4cc(C(C)(C)C)nn4-c4ccc(C)cc4)c4ccccc34)n2)cc(C(=O)N[C@H](C)CN2CCOCC2)c1 [Example 83, (R)-3-((4-((4-(3-(3-(tert-Butyl)-1-(p-tolyl)-1H-pyrazol-5-yl)ureido)naphthalen-1-yl)oxy)pyrimidin-2-yl)amino)-5-ethynyl-N-(1-morpholinopropan-2-yl)benzamide] |  |  |  |  |  |  | 20.9 | 124 | 1.8 | 3.8

Continued, molecule first:

SMILES | EC50 [1] [nM] | IC50 [2] [nM] | IC50 (Syk; Table 4a1) [nM] | IC50 (cSrc; Table 4a1) [nM] | IC50 (GSK3α [4]) [nM] | IC50 (GSK3α [5]) [nM] | IC50 (Syk; [6]) [nM] | IC50 (cSrc; [6]) [nM] | IC50 (IL-8 release, HT29 cells) [nM] | LP inflammation (BDF1 mice) | Ulcer grade (BDF1 mice) | IC50 [3] [nM] | Cell viability at time point in d-U937 cells, 4 h (d-U937 cells) | Cell viability at time point in d-U937 cells, 24 h (d-U937 cells) | IC50 (HRV16 in MRC5 cells) [nM] | inhibition at 5 µg/mL (PBMC cells) [%] | IC50 (IL-2 release, PBMCs) [nM] | IC50 (IFN gamma release, PBMCs) [nM] | IC50 (IL-8 release, PBMCs) [nM]
CCCC1O[C@@H]2C[C@H]3[C@@H]4CCC5=CC(=O)C=C[C@]5(C)[C@H]4[C@@H](O)C[C@]3(C)[C@]2(C(=O)CO)O1 (stereo partly drawn) [Budesonide, reference compound] |  |  |  |  |  |  |  |  |  | 2.5 ± 0.4 | 2.9 ± 0.6 |  |  |  |  |  |  |  | 
COc1ccc(C(=O)NCCN2CCOCC2)cc1Nc1nccc(Oc2ccc(NC(=O)Nc3cc(C(C)C)nn3-c3ccc(C)cc3)c3ccccc23)n1 [Example 30, 3-((4-((4-(3-(3-isopropyl-1-(p-tolyl)-1H-pyrazol-5-yl)ureido)naphthalen-1-yl)oxy)pyrimidin-2-yl)amino)-4-methoxy-N-(2-morpholinoethyl)benzamide] | 2.1 | 9 | 103 | 1 | > 13200 |  |  |  |  |  |  | 117 | −ve (−ve and +ve indicate that the value is below and above respectively, the no significant effect threshold, defined as 30% inhibition at 1 μg/mL at the time point indicated) | −ve (−ve and +ve indicate that the value is below and above respectively, the no significant effect threshold, defined as 30% inhibition at 1 μg/mL at the time point indicated) | 0.43 |  |  |  | 
C#Cc1cc(Nc2nccc(Oc3ccc(NC(=O)Nc4cc(C(C)(C)C(F)(F)F)nn4-c4ccc(C)cc4)c4ccccc34)n2)cc(C(=O)NCCN2CCOCC2)c1 [Example 76, 3-Ethynyl-N-(2-morpholinoethyl)-5-((4-((4-(3-(1-(p-tolyl)-3-(1,1,1-trifluoro-2-methylpropan-2-yl)-1H-pyrazol-5-yl)ureido)naphthalen-1-yl)oxy)pyrimidin-2-yl)amino)-benzamide] |  |  |  |  |  | 1780 | 34 | 45 | 3 |  |  |  |  |  |  | 23 | 188 | 1.8 | 2.1
